Measurements: patent publication US20100028416A1, “DRUG CARRIERS” (Nitto Denko Corporation, priority 2008, published 2010)

Test system: HSC-T6 cells
Conditions: 96-well plate, excitation 560 nm, emission 590 nm, FIGS. 8-9, comparison with non-retinoid composition
Procedure: HSC-T6 cells, which express a vitamin A binding protein receptor, were seeded one day prior to experiment in a 96-well plate (100 μL culture medium per well). […] The solutions were diluted with culture medium and incubated for 15 minutes at room temperature. 15 μL was added to the cells. After incubating the cells in solution, the culture medium was removed. Cells were washed once with DPBS and fresh culture medium was added (100 μL culture medium per well). Absorbance (excitation and emission wavelengths were 560 nm and 590 nm, respectively) was read by a BioTek FLx800 96-well plate fluorescence reader and recorded.

Texas Red-Dextran-Retinoid was tested, and the “cell uptake (absorbance; greater absorbance indicates greater cell uptake)” value was “greater cellular uptake than the oleic acid composition”.
